Read-outs that look alike come from different tables or passages of the source.

Test [1] addresses T1, N-acylamino acid racemase (NAAAR) (Deinococcus radiodurans, UniProt Q9RYA6, A252S/A94S/G148D/K158R/P315S). Type of test: biochemical, Deinococcus radiodurans NCHU1003.
Test [2] has as its system L-N-carbamoylase/N-acylamino acid racemase. The experiment in a line: Conversion of NCa-D-HPA with enzymes L-N-carbamoylase/N-acylamino acid racemase. It is filed as biochemical. The following applies: start 10 mM N-carbamoyl-D-HPA, 50° C., pH 8.0. The text has this: NCAU (5′-[…]-3′, SEQ ID NO: 5), containing BamHI restriction site; and NCAD (5′-[…]-3′, SEQ ID NO:6), containing HindIII restriction site. The nucleotide sequences encoding the NAAAR and L-N-carbamoylase were amplified from Deinococcus radiodurans NCHU1003 and Bacillus kaustophilus CCRC11223 chromosome, respectively, by PCR technology. The PCR products contained T5 promoter, lac operator and 6×his-tag sequence at the 5′-end and A transcriptional terminator at the 3′-end. The PCR products were cloned in the pQE30 expression vector. The resultant plasmid, pQEarlnca, was transformed into E. coli JM109 for inductive expression.
The reaction mixture containing 10 mM substrate N-carbamoyl-D-HPA, 0.5 mM CoCl2, 50 mM Tris-HCl buffer (pH 8.0), and the enzymes NAAAR and L-N-carbamoylase isolated from induced transformant was incubated at 50° C. for carrying out the conversion. After analysed by the Chiral-HPLC method, it is shown that the co-expressed enzymes could completely convert the original substrate to the final product L-amino acid in 2 to 3 h in one single reaction.

Test [3] deals with T1, N-acylamino acid racemase (NAAAR). The experiment in a line: Substrate selectivity / enzymetic activity of NAAAR by Chiral-HPLC. As to conditions: for Specific activity: 10 mM substrate, 0.5 mM CoCl2, 50 mM Tris-HCl pH 8.0, 50° C., 30 min; for Relative activity: percentage of the enzyme activity using N-acetyl-D-Met as substrate. It is filed as biochemical, Deinococcus radiodurans NCHU1003. Here is the method: The enzymetic activity was determined by measuring the production profile of conversion product at 215 nm via HPLC method as described by Tokuyama et al (1994). The reaction buffer containing 10 mM substrate, 0.5 mM CoCl2 and appropriate amount of the enzyme in 50 mM Tris-HCl buffer (pH 8.0) was incubated at 50° C. for 30 min, and the reaction was terminated by placing in boiling water for 5 min. The enzymetic activity was then measured by a Chiral-HPLC method. The Km values (mM) were determined from the original velocity data and the changes in NAc-D-HPA or NAc-D-HPA concentration. The unit NAAAR activity was defined as the enzyme amount required for catalysing 1 μmole of product formation under used condition. As described in the following Table 1, the specific activity of NAAAR for substrate N-carbamoyl-D-HPA was 1.31 U/mg, see Table 1.

Where [4] appears, read: compound at 2 mM, percentage of activity with CoCl2, substrate 10 mM N-carbamoyl-D-HPA, 50° C., 30 min.

T1 sequence (Q9RYA6 whole entry A94S/G148D/K158R/A252S/P315S): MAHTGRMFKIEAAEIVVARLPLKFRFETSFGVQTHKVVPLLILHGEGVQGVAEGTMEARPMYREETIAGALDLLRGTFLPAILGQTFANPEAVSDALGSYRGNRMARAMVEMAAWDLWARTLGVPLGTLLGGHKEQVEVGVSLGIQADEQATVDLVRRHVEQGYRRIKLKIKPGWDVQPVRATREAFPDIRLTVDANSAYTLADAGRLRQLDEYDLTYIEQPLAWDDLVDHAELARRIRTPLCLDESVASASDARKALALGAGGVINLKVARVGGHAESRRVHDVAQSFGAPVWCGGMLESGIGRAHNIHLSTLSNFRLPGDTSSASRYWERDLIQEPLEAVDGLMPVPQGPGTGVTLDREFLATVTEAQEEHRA

With `[Ca+2].[Cl-].[Cl-]` [CaCl2], the Relative activity in test [1] (setting [4]) was determined as 0%.

Regarding `[Cl-].[Cl-].[Co+2]` [CoCl2], in test [1], the “Effect of bivalent metal ion on NAAAR enzymetic activity” value (“Effect of bivalent metal ion” below) is “improved enzymetic activity” and the Relative activity is reported as 100%.

Take `[Cl][Cu][Cl]` [CuCl2]: the Relative activity in test [1] (setting [4]) is on record as 0%.

`O=C(O)CN(CCN(CC(=O)O)CC(=O)O)CC(=O)O` [EDTA]: the Relative activity in test [1] (compound at 10 mM, percentage of activity with CoCl2, substrate 10 mM N-carbamoyl-D-HPA, 50° C., 30 min) was found to be 0%.

For the molecule `N[C@@H](CCc1ccccc1)C(=O)O` [L-HPA, L-homophenylalanine], the “Concentration in conversion reaction” value in test [2] (time 0.5 hour) was 4.96 mM; in test [2] (time 1.0 hour), 8.84 mM; in test [2] (time 2.0 hour) it was 10 mM.

Take `[Cl-].[Cl-].[Mg+2]` [MgCl2]: the Relative activity in test [1] (setting [4]) stood at 20.5%.

For the molecule `[Cl][Mn][Cl]` [MnCl2], in test [1] (setting [4]), the Relative activity was 79.1%. The “Effect of bivalent metal ion” value in test [1] (in words) is listed as “improved enzymetic activity”.

As for `CC(=O)N[C@H](CCc1ccccc1)C(=O)O` [N-acetyl-D-HPA], in test [3], the Specific activity stood at 9.17 U/mg and the Relative activity amounted to 143.28%.

In the case of `CSCC[C@@H](NC(C)=O)C(=O)O` [N-acetyl-D-Met], in test [3], the Specific activity is 6.40 U/mg and the Relative activity worked out at 100%.

For `CC(=O)N[C@H](Cc1ccccc1)C(=O)O` [N-acetyl-D-Phe], in test [3], the Specific activity stood at 1.98 U/mg and the Relative activity is 30.94%.

Turning to `CC(=O)N[C@@H](CCC(N)=O)C(=O)O` [N-acetyl-L-Gln], in test [3], the Specific activity was 0.93 U/mg and the Relative activity worked out at 14.53%.

`CC(=O)N[C@@H](CCc1ccccc1)C(=O)O` [N-acetyl-L-HPA]: in test [3], the Specific activity was found to be 11.97 U/mg and the Relative activity came to 187.03%.

With `CC(=O)N[C@@H](CC(C)C)C(=O)O` [N-acetyl-L-Leu], in test [3], the Specific activity came out at 0.45 U/mg and the Relative activity is on record as 7.03%.

Consider `CSCC[C@H](NC(C)=O)C(=O)O` [N-acetyl-L-Met], for which, in test [3], the Specific activity is recorded as 8.04 U/mg and the Relative activity is 125.63%.

With `CC(=O)N[C@@H](Cc1ccccc1)C(=O)O` [N-acetyl-L-Phe], in test [3], the Specific activity came out at 1.55 U/mg and the Relative activity came to 24.22%.

Consider `CC(=O)N[C@@H](Cc1c[nH]c2ccccc12)C(=O)O` [N-acetyl-L-Trp], for which, in test [3], the Specific activity came to 0.87 U/mg and the Relative activity stood at 13.13%.

For `[2H]NC(=O)N[C@@H](CCc1ccccc1)C(=O)O` [N-carbamoyl-D-HPA], the “Concentration in conversion reaction” value in test [2] (time 0.5 hour) worked out at 4.16 mM; in test [2] (time 1.0 hour), 1.16 mM; in test [2] (time 2.0 hour), 0 mM. This molecule gave a Specific activity in test [3] of 1.31 U/mg. Further, the Relative activity in test [3] was 20.46%.

As to `NC(=O)N[C@@H](CCc1ccccc1)C(=O)O` [N-carbamoyl-L-HPA], the “Concentration in conversion reaction” value in test [2] (time 0.5 hour) was determined as 0.88 mM; in test [2] (time 1.0 hour) it was 0 mM; in test [2] (time 2.0 hour), 0 mM. Also, the Specific activity in test [3] was 1.91 U/mg. In test [3], the Relative activity amounted to 29.84%.

Regarding `O=C(CCl)N[C@@H](Cc1ccccc1)C(=O)O` [N-chloroacetyl-L-Phe], in test [3], the Specific activity was 1.16 U/mg and the Relative activity worked out at 18.13%.

On to `[Cl][Ni][Cl]` [NiCl2], for which the Relative activity in test [1] (setting [4]) turned out to be 40.6%. Also, in test [1] (in words), the “Effect of bivalent metal ion” value is reported as “improved enzymetic activity”.

In the case of `[Cl-].[Cl-].[Zn+2]` [ZnCl2], in test [1] (setting [4]), the Relative activity is 19.7%.

(Values after patent US7629154B2, “Deinococcus N-acylamino acid racemase and use of preparing L-amino acid” (National Chunghsing University, priority 2005, dated 2009).)
